Data: US20200038399A1, “FORMULATIONS, METHODS, KIT, AND DOSAGE FORMS FOR TREATING BACTERIAL INFECTION” (Motif BioSciences Inc., priority 2016, published 2020)
Where “and” joins values, the source holds several entries; their conditions need not be identical. Identical values can stand only once. Counter-ions that a name gives are not always drawn.

Tests used:
[1] = in vivo; cited from earlier work
Gram-positive bacteria = conditions: cited from earlier work
hERG channel = hERG channel (Homo sapiens, UniProt Q12809); conditions: cited from earlier work
S. pneumoniae 1/1 [2] = test: checkerboard synergy assay with iclaprim; type: cell-based, Streptococcus pneumoniae; conditions: antibiotic in combination with iclaprim
S. aureus 101 [3] = test: MIC determination; type: cell-based, Staphylococcus aureus; conditions: Staphylococcus aureus, 101, 18 h; read-out: Minimum inhibitory concentrations (MIC)
Outline: (§1)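 Visible-growth endpoint after 18 h, 37 °C. Cation-adjusted Mueller-Hinton broth was used for K. pneumoniae and S. aureus in ambient air; H. influenzae (HTM) and M. catarrhalis (Brain Heart Infusion) were incubated under 5% CO2.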

[4] = tested on: Staphylococcus aureus ATCC 25923; test: checkerboard synergy assay with iclaprim; type: cell-based; conditions: antibiotic in combination with iclaprim; S. aureus 25923
[5] = tested on: Haemophilus influenzae ATCC 49766; test: checkerboard synergy assay with iclaprim; type: cell-based; conditions: antibiotic in combination with iclaprim; H. influenzae 49766
[6] = tested on: Streptococcus pneumoniae ATCC 49619; test: checkerboard synergy assay with iclaprim; type: cell-based; conditions: antibiotic in combination with iclaprim; S. pneumoniae 49619
[7] = tested on: Moraxella catarrhalis RA 21; test: checkerboard synergy assay with iclaprim; type: cell-based; conditions: antibiotic in combination with iclaprim; M. catarrhalis RA 21
[8] = tested on: Klebsiella pneumoniae ATCC 33495; test: checkerboard synergy assay with iclaprim; type: cell-based; conditions: antibiotic in combination with iclaprim; K. pneumoniae 33495
[9] = tested on: Staphylococcus aureus ATCC 25923; test: MIC determination; type: cell-based; conditions: Staphylococcus aureus, ATCC25923; S. aureus 25923; 18 hours at 37° C.; read-out: Minimum inhibitory concentrations (MIC)
Outline: as §1

[10] = tested on: Haemophilus influenzae ATCC 49766; test: MIC determination; type: cell-based; conditions: Haemophilus influenzae, ATCC49766, 18 h, read-out: Minimum inhibitory concentrations (MIC)
Outline: as §1

[11] = tested on: Streptococcus pneumoniae ATCC 49619; test: MIC determination; type: cell-based; conditions: Streptococcus pneumoniae, ATCC49619; S. pneumoniae 49619; 18 hours at 37° C., 5% CO2; read-out: Minimum inhibitory concentrations (MIC)
[12] = tested on: Moraxella catarrhalis RA 21; test: MIC determination; type: cell-based; conditions: Moraxella catarrhalis, RA21; M. catarrhalis RA 21; 18 hours at 37° C., 5% CO2; read-out: Minimum inhibitory concentrations (MIC)
Outline: as §1

[13] = tested on: Klebsiella pneumoniae ATCC 33495; test: MIC determination; type: cell-based; conditions: Klebsiella pneumoniae, ATCC33495; K. pneumonia 33495; 18 hours at 37° C.; read-out: Minimum inhibitory concentrations (MIC)
Outline: as §1

S. aureus 101 [14] = test: checkerboard synergy assay with iclaprim; type: cell-based, Staphylococcus aureus; conditions: antibiotic in combination with iclaprim
[15] = tested on: Staphylococcus aureus, Streptococcus pneumoniae, Haemophilus influenzae, Moraxella catarrhalis and Klebsiella pneumoniae; test: checkerboard synergy assay with iclaprim, strains pooled; type: cell-based
Protocol: The synergistic potential of iclaprim against Gram-positive and Gram-negative bacteria was determined using the checkerboard assay as described in Eliopoulos GM and Moellering, Jr. RC (1991), Antimicrobial combinations, pp. 432-492, in V. Lorian (ed.), Antibiotics in laboratory medicine, 3rd Ed., The Williams & Wilkins Co., Baltimore, the entire disclosure of which is herein incorporated by reference, allowing multiple test concentrations of iclaprim to be assayed in the presence of various concentrations of the other antibiotic in microtiter plates. The same growth media and conditions were used as described in 3.2 below.
Two different dilutions were used for iclaprim depending on the MIC determined for the bacterium. […] Iclaprim and the other antibiotic being tested were also dispensed alone in the last row and in the last column, respectively, as controls.
The Fractional Inhibitory Concentrations (FIC) for each added agent were calculated and used to determine the sum of FIC (ΣFIC) indicative of the synergistic potential of a given combination as described in Veyssier P. (1999), Inhibiteurs de la dihydrofolate reductase, nitrohétérocycles (furanes) et 8-hydroxyquinoleines, pp. 995-1027, in A. Bryskier (ed.), Antibiotiques agents antibatériens et antifongiques, 1st Ed., Ellipses Edition Marketing SA, Paris, the entire disclosure of which is herein incorporated by reference. Synergy was defined whereby the ΣFIC was <0.5, indifference (no synergy nor antagonism) whereby ΣFIC was ≥0.5 but ≤4, and antagonism whereby ΣFIC was >4. Additivity as a special form of indifference was defined whereby the ΣFIC was ≥0.5 but <1, for example as described in Stevens, D L et al. (1998), In vitro antimicrobial effects of various combinations of penicillin and clindamycin against four strains of Streptococcus pyogenes, J. Antimicrob. Chemother. 42: 1266-1268, the entire disclosure of which is herein incorporated by reference.

S. pneumoniae 1/1 [16] = test: MIC determination; type: cell-based, Streptococcus pneumoniae; conditions: Streptococcus pneumoniae; S. pneumoniae 1/1; 18 hours at 37° C., 5% CO2; read-out: Minimum inhibitory concentrations (MIC)
Pneumocystis jirovecii = test: in vivo Pneumocystis pneumonia model, corticosteroid-treated rats; conditions: 50 mg/kg/d oral, once a day for 10 days
Protocol: Compound solutions were prepared just before use.
The drugs were given once a day for 10 consecutive days. The final concentration of DMSO in diluted drug solutions was between 1.5 and 15%. Control animals were dosed with sterile water with 15% of DMSO. At the end of the experiment, therapeutic efficacy was assessed by counting P. jirovecii in lung homogenates and comparing the counts with those of the untreated controls. Twenty-four hours after the end of the treatment, animals were sacrificed and the lung homogenized in a Stomacher-400 blender as previously described (European Concerted Action on Pneumocystis Research. Parasitology Today 12: 245-9, 1996, the entire disclosure of which is herein incorporated by reference). Parasite quantitation was performed on air-dried smears stained with toluidine blue 0 (cystic forms) or RAL-555 stains (vegetative, precystic and cystic forms).

[17] = in vivo; cited from earlier work; remark: listed apart in the source
[18] = 1% solution in water; cited from earlier work
[19] = water at 20° C.; cited from earlier work
[20] = cited from earlier work
[21] = rat lung, single rat, listed as TMP, 50 mg/kg/day
[22] = single rat, listed as TMP, 50 mg/kg/day

Chain of hERG channel (Q12809 whole entry): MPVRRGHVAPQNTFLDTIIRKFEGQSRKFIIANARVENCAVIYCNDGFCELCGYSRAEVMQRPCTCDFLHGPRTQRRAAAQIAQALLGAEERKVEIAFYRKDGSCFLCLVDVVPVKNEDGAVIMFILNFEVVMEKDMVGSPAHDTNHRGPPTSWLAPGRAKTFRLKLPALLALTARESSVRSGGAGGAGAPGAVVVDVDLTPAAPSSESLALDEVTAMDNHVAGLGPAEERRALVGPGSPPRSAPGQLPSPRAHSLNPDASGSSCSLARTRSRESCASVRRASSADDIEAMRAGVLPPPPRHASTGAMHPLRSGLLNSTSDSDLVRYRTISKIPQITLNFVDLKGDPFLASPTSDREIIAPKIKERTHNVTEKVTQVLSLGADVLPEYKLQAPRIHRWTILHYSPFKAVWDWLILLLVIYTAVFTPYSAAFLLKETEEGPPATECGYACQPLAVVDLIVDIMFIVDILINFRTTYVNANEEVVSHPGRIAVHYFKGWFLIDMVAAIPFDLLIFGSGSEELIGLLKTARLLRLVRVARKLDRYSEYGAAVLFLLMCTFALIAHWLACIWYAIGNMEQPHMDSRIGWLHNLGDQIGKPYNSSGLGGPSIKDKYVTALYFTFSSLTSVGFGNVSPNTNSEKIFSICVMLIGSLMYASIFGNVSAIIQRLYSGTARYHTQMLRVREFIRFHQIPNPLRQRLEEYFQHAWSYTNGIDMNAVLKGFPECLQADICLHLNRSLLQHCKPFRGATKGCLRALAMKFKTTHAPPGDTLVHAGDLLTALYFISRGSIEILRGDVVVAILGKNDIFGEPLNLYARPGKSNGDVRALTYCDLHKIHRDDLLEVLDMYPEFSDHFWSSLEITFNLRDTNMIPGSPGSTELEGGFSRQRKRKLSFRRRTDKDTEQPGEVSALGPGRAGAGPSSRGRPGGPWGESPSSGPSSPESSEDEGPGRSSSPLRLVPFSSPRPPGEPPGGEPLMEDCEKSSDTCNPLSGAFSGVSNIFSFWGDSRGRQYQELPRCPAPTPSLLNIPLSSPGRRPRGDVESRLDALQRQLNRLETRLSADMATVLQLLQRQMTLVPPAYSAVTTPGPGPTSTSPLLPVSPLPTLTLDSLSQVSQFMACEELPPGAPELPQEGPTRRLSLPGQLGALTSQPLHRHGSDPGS

SMILES	Σ FIC (S. pneumoniae 1/1 [2])	MIC (S. aureus 101 [3]) [µg/mL]	Σ FIC [4]	Con (Conclusion) [5]	Σ FIC [5]	Σ FIC [6]	Con (Conclusion) [7]	Σ FIC [7]	Con (Conclusion) [8]	Σ FIC [8]	MIC [9] [µg/mL]	MIC [10] [µg/mL]	MIC [11] [µg/mL]	MIC [12] [µg/mL]	MIC [13] [µg/mL]	Σ FIC (S. aureus 101 [14])	MIC (S. pneumoniae 1/1 [16]) [µg/mL]	further results
COc1cc(Cc2cnc(N)nc2N)c2c(c1OC)O[C@H](C1CC1)C=C2 [R-enantiomer, 5-[(2R)-2-cyclopropyl-7,8-dimethoxy-2Hchromen-5-ylmethyl] pyrimidine-2,4-diamine]	–	–	–	–	–	–	–	–	–	–	–	–	–	–	–	–	–	pharmacokinetic parameters compared with the S-enantiomer [1]: more favorable pharmacokinetic parameters; minimum inhibitory concentration (MIC) compared with the S-enantiomer (Gram-positive bacteria): lower minimum inhibitory concentration (MIC) than the S-enantiomer; hERG channel activity compared with the S-enantiomer (hERG channel): reduced hERG channel activity
Nc1ccc(S(=O)(=O)Nc2ncccn2)cc1 [Sulfadiazine]	0.28-0.56	> 128	0.06-0.53	Syn (Synergy (Syn))	0.16-0.53	0.13-0.53	Syn (Synergy (Syn))	0.09-0.50	Syn (Synergy (Syn))	0.27-1.50	> 128	> 128	> 128	> 128	> 128	0.75-1.13	> 128	synergistic potential with iclaprim ([15]; checkerboard experiments, all strains): highly synergistic; ΣFIC, range over strains ([15]; in combination with iclaprim, all the strains tested): 0.06-1.50
COc1cc(Cc2cnc(N)nc2N)cc(OC)c1OC [Trimethoprim]	0.56-1.03	> 128	1.00-1.25	Ind (Indifference (Ind))	1.00-1.25	1.00-1.25	Ad (Additivity (Ad))	0.75-1.13	Ind (Indifference (Ind))	1.13-1.50	1	0.5	8	64	8	1.01-1.50	128	Mean % + SD (inhibition of cysts, TBO) (Pneumocystis jirovecii; group mean): 64.2 ± 30.7%; Mean % + SD (inhibition of total parasites, Giemsa) (Pneumocystis jirovecii; group mean): 78.7 ± 22.6%; Total cysts (TBO) (Pneumocystis jirovecii; [21]): 7.16.10^+7 and 9.36.10^+6 and 1.60.10^+8 and 1.32.10^+7; Total parasites (Giemsa) (Pneumocystis jirovecii; [21]): 1.06.10^+9 and 5.81.10^+7 and 6.76.10^+8 and 6.38.10^+7; % of inhibition vs Control (total parasites, Giemsa) (Pneumocystis jirovecii; [22]): 51.3% and 97.3% and 69.0% and 97.1%; % of inhibition vs control (cysts, TBO) (Pneumocystis jirovecii; [22]): 40.6% and 92.2% and 34.9% and 89.0%; t½ (plasma half-life) [17]: about 10.1 hours
COc1cc(Cc2cnc(N)nc2N)c2c(c1OC)OC(C1CC1)C=C2 (stereo not shown) [iclaprim mesylate]	–	–	–	–	–	–	–	–	–	–	–	–	–	–	–	–	–	pH value [18]: 4.2; solubility in water [19]: approximately 10 mg/mL; pKa [20]: 7.2
